Assay results from US10226426B2, “Suspension containing nano-cocrystal and manufacturing method” (TAKEDA PHARMACEUTICAL COMPANY LIMITED, priority 2015, dated 2019).
In brackets after ≈: the same amount, converted by molar mass.

Key:
[1] = Powder X-ray diffractometry, crystallinity by the Hermans method; assay type: physicochemical
Protocol: To be specific, powder samples (about 2 mg) were placed on a silicon sample plate, and scanned between 2 and 35 degrees (2θ) at a scan speed of 6 degrees/min. Powder samples such as nanoized FSD and the like were prepared by centrifuging suspensions thereof by cooling centrifugal machine Himac CR21G (manufactured by Hitachi Koki Co., Ltd.) at 19,000 rpm for 10 min and drying same. In addition, from the obtained X-ray diffraction patterns by the Hermans method, crystallinity before and after wet grinding was calculated.

[2] = value at 25° C. and 1 atm; cited from earlier work

Row | Structure (SMILES) | crystallinity before wet grinding [1] | diffraction pattern before and after wet grinding (dissociation of cocrystal) ([1]; wet grinding in 0.5% (w/v) HPMC and 0.02% (w/v) SDS) | water solubility [2] | formation of hydrate by wet grinding ([1]; diffraction pattern after wet grinding)
1 | NS(=O)(=O)c1cc(C(=O)O)c(NCc2ccco2)cc1Cl [Furosemide, furosemide] | 85% | did not show a marked difference in the diffraction pattern before and after the wet grinding |  | 
2 | O=C1NS(=O)(=O)c2ccccc21 [Saccharin, saccharin] |  |  | 3.4 mg/mL (≈ 18600 µM) | 
3 | NC(=O)N1c2ccccc2C=Cc2ccccc21 [anhydrous carbamazepine, carbamazepine] | 88% |  | 0.22 mg/mL (≈ 931 µM) | formation of CBZ dihydrate could be confirmed
4 | COc1ccc2c(c1)c(CC(=O)O)c(C)n2C(=O)c1ccc(Cl)cc1 [indomethacin] | 81% |  | 0.0095 mg/mL (≈ 26.6 µM) | 
5 | NC(N)=O [urea] |  |  | 1,000 mg/mL | 
